“And” between values parts separate entries of the source, which are not always exact repeats. Equal values may be shown once.
Assays:
INR [1] = assay: Fit of dose-response equation (4)/(5) for Vitamin K intake to INR of anti-coagulated patients (published data); assay type: in vivo
Source text: More specifically, the reciprocal of INR will be dose-responsive to Vitamin K in the normal manner, as discussed above, so that Logit (1/INR) will be linear in log (K), where K is the effective total intake of Vitamin K in μg/day. Data on the total intake of Vitamin K are very rarely available in the clinic, but it is practicable to investigate departures from the usual amount when occasion arises, such as when a supplement of Vitamin K is prescribed. Therefore log (K) is expressed as the sum of two terms: log (K)=log (K0)+log (K/K0), where K0 is the average daily intake of Vitamin K.
The dose-response curve described here includes the effect of exogenous Vitamin K by considering the parameter a in equation (1) to be the sum of two terms, a=a′+c log (K0), where a′ is another constant and c is a patient-specific parameter, and by adding a term for the effect of departures from K0. Thus, it follows that Log (INR−1)=bw−a−c log (K/K0) (4) […]
The parameters of this dose-response curve for Vitamin K are derived primarily from published data based on use of synthetic Vitamin K tablets. In such published studies, the average daily intake of Vitamin K was measured in the diet of the subjects at 55 μg. […] The dose was increased each Monday before INR was measured; thus, the INR for Tuesday was one day after increase, etc.

INR [2] = system: INR
Source text: To simplify, a=y log (PCAo)−x, which expresses the fixed contribution of the patient's own clotting factor system; this will result in equation (1) Log (INR−1)=bw−a (1)
Consequently, the patient-specific parameters are now a and b. […] In the absence of further information, a is assumed to be a constant characteristic of the patient, but as will be shown below, also includes the effects of the intake of Vitamin K on the patient's INR, whose effects can be represented by adding another term (see below). It should be pointed out that Equation (1) is a proposition, not a definition, because it specifies what value of the INR will be observed, given values for a, b and w. Furthermore, it should be appreciated that the value predicted for a particular patient thus depends only on w regardless of when in the treatment sequence it occurred. […] These two parameters relating INR to effective dose w can be seen as the scale factor for the dose a and the steepness of the dose response b.
In the present invention, an empirical approximation is used to predict the time course of the patient's response to a change in a dose. […] In the case of a patient taking the same dose for an extended time, the “effective dose” equals that regular dose after the stabilization time. The “effective dose” only needs to be calculated when there is a change in dosage and during the stabilization period.
The “effective dose” is calculated by convolving the actual dose with a function of time since the dose was taken. This function represents the effect of a single dose on the INR through time. […] It is assumed that the weighting for a dose taken just once is a triangular function with a slope of k from the time the dose is taken to the time of its maximum effect on INR, followed by a tailing off with a slope of −k. The resulting function for a maintained daily dose is an S-shaped growth function, consisting of two quarter-parabolae, depicted in FIG. 5. […] Here, the half-maximal delay is one unit of time at which the dose has half its maximum effect. When the patient stops taking the drug, the decay is reversed.
The “optimum” dose is the dose expected to yield an INR at the mid-point of the therapeutic range. The effective doses were calculated using a half-maximal delay of 6.4, 6.4 and 9.0 days respectively.
The parameter tmax½ used for this convolution is the time to attain the half-maximal effect for a maintained dose, which is also the time to attain the maximum effect of a single dose.

[3] = patients studied, all taking warfarin, w = daily dosage in milligrams, natural log

CC1=C(C/C=C(\C)CCC[C@H](C)CCC[C@H](C)CCCC(C)C)C(=O)c2ccccc2C1=O [Vitamin K1]
half-time to stabilization (INR [1]; effect on INR of effective total daily intake): about 1.6 days

Vitamin K
average value of patient-specific parameter c in equation (5) (INR [1]; derived from the literature data, K in μg/day, natural log): 0.43

CC(=O)CC(c1ccccc1)c1c(O)c2ccccc2oc1=O (centres unmarked) [warfarin]
time until the INR has stabilized on a constant dose (INR [2]; constant dose): 13 days and 14 days
mean value of a in equation (1), Log (INR-1)=bw-a (INR [2]; [3]): about 2.8
mean value of b in equation (1) (sensitivity, slope of the dose-response curve) (INR [2]; [3]): about 0.54

Source: patent publication US8688416B2, “Methods and systems for improved pharmaceutical intervention in coagulation control” (priority 2008, dated 2014)
